# Experimental data published in patent US10710993B2, “Benzofuran pyrazole amine kinase inhibitor” (Hangzhou REX Pharmaceutical Co., LTD., priority 2016, dated 2020).
# How the values were obtained:
# [1] = target: T1, TEL-ALK-F1174L-BaF3 (Homo sapiens, UniProt Q9UM73, F1174L, cells depend on it); experiment: Cell proliferation experiment (Cell-Titer GLO), TEL-ALK-F1174L-BaF3; format: cell-based; details: 72 h, read-out: IC50 TEL-ALK F1174L-BaF3
# T1 construct: fused on or other part: TEL (ETV6) N-terminal oligomerising part fused before the ALK intracellular/kinase part; P41212 (Transcription factor ETV6)
# Procedure: (§1) Compounds to be tested: Positive compound Ceritinib and the compounds obtained by the examples of the present invention.
# (§2) Cell lines: Karpas-299 and NCI-H3122 which were purchased from the Nanjing kebai biotechnology Co. LTD; TEL-ALK-F1174L-BaF3, TEL-ALK-G1202R-BaF3, TEL-ALK-C1156Y-BaF3 and TEL-ALK-L1196M-BaF3 which were purchased from Hefei zhongkopruisheng biological medicine technology Co. LTD.
# (§3) Method: Cells were seeded in 96-well plates for 24 h in growth media containing 10% fetalbovine serum (FBS) and cultured overnight at 37° C. The following day, serial dilutions of compounds or appropriate control were added to the designated wells, and cells were incubated at 37° C. for 72 h. A Cell Titer Glo assay (Promega) was then performed to determine the relative cell numbers. IC50 values were calculated by concentration-response curve fitting using a four-parameter analytical method with Graphpad 6.0. Drug inhibition rate (%)=100%−[OD(Compound)−OD(blank)]/[OD(vehicle)−OD(blank)]×100% Equation: […]
# [2] = target: T2, TEL-ALK-G1202R-BaF3 (Homo sapiens, UniProt Q9UM73, G1202R, cells depend on it); experiment: Cell proliferation experiment (Cell-Titer GLO), TEL-ALK-G1202R-BaF3; format: cell-based; details: 72 h, read-out: IC50 TEL-ALK G1202R-BaF3
# T2 construct: fused on or other part: TEL (ETV6) N-terminal oligomerising part fused before the ALK intracellular/kinase part; P41212 (Transcription factor ETV6)
# Procedure: as §1, §2, §3
# [3] = target: T3, ALK L1196M (Homo sapiens, UniProt Q9UM73, L1196M); experiment: LanthaScreen Eu Kinase Binding Assay (TR-FRET) on ALK mutant
# T3 construct: purchased Life Technology
# Source text: Meanwhile, The LanthaScreen® Eu Kinase Binging Assay (TR-FRET) method was used for determining ALK Mutants (such as ALK L1196M) inhibitory activity IC50. LanthaScreen Eu kinase binding experiment detected Alexa Fluor conjugate or kinase “tracer” binding by adding Eu labeled antibodies or anti-label antibodies. The combination of tracer and antibody with kinase leads to a high level of FRET, whereas the use of kinase inhibitors in place of tracer may cause FRET loss.
# (§4) The kinase activity assay was determined by using kinase assay panel (Life Technology) and the result was in table 1.
# [4] = target: T4, Wild-Type ALK (Homo sapiens, UniProt Q9UM73); experiment: Z'-LYTE (FRET) ALK kinase inhibitory activity; format: biochemical
# T4 construct: purchased Life Technology
# Procedure: as §4
# [5] = system: NCI-H3122; experiment: Cell proliferation experiment (Cell-Titer GLO), NCI-H3122; format: cell-based; details: Homo sapiens, 72 h
# Procedure: as §1, §2, §3
# T3 sequence (Q9UM73 19-1620 L1196M): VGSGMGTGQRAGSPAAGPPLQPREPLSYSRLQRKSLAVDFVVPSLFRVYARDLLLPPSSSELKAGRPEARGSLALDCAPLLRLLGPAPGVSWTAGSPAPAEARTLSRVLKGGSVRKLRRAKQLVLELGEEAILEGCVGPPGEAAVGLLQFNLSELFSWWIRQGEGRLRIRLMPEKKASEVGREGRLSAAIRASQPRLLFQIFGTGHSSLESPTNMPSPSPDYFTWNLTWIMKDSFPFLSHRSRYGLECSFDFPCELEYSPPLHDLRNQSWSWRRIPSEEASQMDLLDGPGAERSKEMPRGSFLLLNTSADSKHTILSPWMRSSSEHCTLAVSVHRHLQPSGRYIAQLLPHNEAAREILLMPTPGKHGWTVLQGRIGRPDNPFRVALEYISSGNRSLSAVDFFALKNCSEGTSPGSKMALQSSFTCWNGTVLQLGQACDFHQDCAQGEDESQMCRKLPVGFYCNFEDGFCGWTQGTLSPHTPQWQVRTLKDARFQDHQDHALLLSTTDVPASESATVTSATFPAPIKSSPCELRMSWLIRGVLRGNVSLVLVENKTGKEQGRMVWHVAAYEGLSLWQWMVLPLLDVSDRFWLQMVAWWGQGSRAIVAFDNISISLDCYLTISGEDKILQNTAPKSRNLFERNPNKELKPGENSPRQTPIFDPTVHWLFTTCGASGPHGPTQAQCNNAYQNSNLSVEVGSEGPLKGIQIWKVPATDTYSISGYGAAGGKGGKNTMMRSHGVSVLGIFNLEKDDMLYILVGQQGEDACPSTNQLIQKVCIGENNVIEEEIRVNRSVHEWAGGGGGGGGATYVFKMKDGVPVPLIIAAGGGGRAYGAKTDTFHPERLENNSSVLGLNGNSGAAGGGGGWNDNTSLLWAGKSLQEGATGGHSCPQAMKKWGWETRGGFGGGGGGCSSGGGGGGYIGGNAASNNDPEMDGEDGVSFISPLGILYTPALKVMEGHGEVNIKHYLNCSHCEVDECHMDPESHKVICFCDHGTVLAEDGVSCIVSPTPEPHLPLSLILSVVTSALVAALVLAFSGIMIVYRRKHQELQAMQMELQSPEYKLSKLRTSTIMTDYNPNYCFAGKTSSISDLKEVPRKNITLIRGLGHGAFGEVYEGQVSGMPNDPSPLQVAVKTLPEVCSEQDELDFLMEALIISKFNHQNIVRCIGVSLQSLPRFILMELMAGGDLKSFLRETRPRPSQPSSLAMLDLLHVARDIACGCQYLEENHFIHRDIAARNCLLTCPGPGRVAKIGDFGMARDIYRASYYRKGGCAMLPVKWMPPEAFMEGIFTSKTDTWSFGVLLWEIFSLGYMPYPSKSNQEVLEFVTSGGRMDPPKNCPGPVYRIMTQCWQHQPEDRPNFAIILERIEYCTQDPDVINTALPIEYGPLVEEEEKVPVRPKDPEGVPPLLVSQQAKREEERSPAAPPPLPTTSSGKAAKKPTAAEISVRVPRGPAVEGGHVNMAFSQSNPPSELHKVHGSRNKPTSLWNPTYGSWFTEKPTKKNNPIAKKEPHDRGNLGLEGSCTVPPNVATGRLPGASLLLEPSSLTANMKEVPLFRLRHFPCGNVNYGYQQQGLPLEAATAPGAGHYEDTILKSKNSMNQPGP
# T1 sequence (Q9UM73 whole entry F1174L, the tested form may be a part): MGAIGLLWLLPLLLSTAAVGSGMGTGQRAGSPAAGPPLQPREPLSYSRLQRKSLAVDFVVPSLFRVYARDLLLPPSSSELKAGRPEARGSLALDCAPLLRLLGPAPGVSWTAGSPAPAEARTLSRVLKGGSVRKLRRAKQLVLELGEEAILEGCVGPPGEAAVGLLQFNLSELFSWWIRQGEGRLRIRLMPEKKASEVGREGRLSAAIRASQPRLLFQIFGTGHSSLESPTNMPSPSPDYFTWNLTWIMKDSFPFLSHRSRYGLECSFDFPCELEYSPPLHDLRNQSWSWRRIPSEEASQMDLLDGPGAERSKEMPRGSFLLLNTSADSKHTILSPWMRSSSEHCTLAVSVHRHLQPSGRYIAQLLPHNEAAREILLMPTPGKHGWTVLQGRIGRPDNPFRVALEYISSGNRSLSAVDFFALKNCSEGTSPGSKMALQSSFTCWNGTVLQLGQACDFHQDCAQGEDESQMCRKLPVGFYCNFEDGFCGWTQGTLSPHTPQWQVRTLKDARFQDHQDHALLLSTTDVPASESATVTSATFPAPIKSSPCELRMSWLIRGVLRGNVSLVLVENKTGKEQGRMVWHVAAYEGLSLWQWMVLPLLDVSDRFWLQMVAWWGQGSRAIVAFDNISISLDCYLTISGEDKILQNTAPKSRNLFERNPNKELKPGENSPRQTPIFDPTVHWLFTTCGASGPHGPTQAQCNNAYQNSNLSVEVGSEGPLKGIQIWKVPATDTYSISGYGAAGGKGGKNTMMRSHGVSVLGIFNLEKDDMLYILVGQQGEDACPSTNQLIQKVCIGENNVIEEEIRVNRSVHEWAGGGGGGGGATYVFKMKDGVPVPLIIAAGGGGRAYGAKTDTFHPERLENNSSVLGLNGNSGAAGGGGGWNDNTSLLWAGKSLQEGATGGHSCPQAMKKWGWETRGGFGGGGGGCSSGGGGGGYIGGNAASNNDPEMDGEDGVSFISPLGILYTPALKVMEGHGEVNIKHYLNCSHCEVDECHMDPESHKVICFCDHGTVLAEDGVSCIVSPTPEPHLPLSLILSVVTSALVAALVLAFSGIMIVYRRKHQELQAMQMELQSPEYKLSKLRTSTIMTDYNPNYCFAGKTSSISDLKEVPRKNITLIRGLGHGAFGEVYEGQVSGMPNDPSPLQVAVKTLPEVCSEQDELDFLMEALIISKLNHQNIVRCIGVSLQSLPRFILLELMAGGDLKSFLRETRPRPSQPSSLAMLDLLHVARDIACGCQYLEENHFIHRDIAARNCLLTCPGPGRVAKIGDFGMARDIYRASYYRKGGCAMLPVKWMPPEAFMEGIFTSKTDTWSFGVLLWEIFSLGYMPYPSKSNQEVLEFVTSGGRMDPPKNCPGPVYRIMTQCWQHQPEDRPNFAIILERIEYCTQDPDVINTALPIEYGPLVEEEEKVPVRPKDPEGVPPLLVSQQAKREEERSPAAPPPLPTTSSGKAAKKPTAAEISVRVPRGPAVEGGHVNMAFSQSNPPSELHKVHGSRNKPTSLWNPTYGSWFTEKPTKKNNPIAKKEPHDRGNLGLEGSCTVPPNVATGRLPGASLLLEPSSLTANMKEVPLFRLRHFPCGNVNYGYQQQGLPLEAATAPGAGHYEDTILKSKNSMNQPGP
# T4 sequence (Q9UM73 19-1620): as the sequence (Q9UM73 19-1620 L1196M) above, with M1178L counted along it
# T2 sequence (Q9UM73 whole entry G1202R, the tested form may be a part): as the sequence (Q9UM73 whole entry F1174L, the tested form may be a part) above, with L1174F, G1202R counted along it
GI50 [1] [nM],GI50 [2] [nM],IC50 [3] [nM],IC50 [4] [nM],IC50 [5] [nM],SMILES
11.1,> 180,–,–,–,"Cc1cc(Nc2ncc(Cl)c(Nc3cn(C)nc3S(=O)(=O)C(C)C)n2)c2c(c1C1CCN(C)CC1)CCC(C)O2 (stereo not drawn) [REX-D25, 5-chloro-N^2-(2,6-dimethyl-5-(1-methylpiperidin-4-yl)chroman-8-yl)-N^4-(3-(isopropylsulfonyl)-1-methyl-1H-pyrazol-4-yl)pyrimidine-2,4-diamine]"
51.8,> 180,1.02,15.8,11.8,"Cc1cc(Nc2ncc(C(F)(F)F)c(Nc3cn(C4CC4)nc3S(=O)(=O)C(C)C)n2)c2c(c1C1CCN(C)CC1)C[C@@H](C)O2 [REX-D9, (R)—N^4-(1-cyclopropyl-3-(isopropylsulfonyl)-1H-pyrazol-4-yl)-N^2-(2,5-dimethyl-4-(1-methylpiperidin-4-yl)-2,3-dihydrobenzofuran-7-yl)-5-(trifluoromethyl)pyrimidine-2,4-diamine]"
< 200,> 180,< 0.5,17.1,14.2,"Cc1cc(Nc2ncc(C(F)(F)F)c(Nc3cn(C)nc3S(=O)(=O)CC(C)C)n2)c2c(c1C1CCN(C)CC1)C[C@@H](C)O2 [REX-D10, (R)—N^2-(2,5-dimethyl-4-(1-methylpiperidin-4-yl)-2,3-dihydrobenzofuran-7-yl)-N^4-(3-(isobutylsulfonyl)-1-methyl-1H-pyrazol-4-yl)-5-(trifluoromethyl)pyrimidine-2,4-diamine]"
138,> 180,1.92,15.1,40.4,"Cc1cc(Nc2ncc(Cl)c(Nc3cn(C4CC4)nc3S(=O)(=O)C(C)C)n2)c2c(c1C1CCNCC1)C[C@@H](C)O2 [REX-D31, (R)-5-chloro-N^4-(1-cyclopropyl-3-(isopropylsulfonyl)-1H-pyrazol-4-yl)-N^2-(2,5-dimethyl-4-(piperidin-4-yl)-2,3-dihydrobenzofuran-7-yl)pyrimidine-2,4-diamine]"
< 10,> 180,–,–,–,"Cc1cc(Nc2ncc(Cl)c(Nc3cn(C)nc3S(=O)(=O)CC(C)C)n2)c2c(c1C1CCN(CCO)CC1)C[C@@H](C)O2 [REX-D39, (R)-2-(4-(7-((5-chloro-4-((3-(isobutylsulfonyl)-1-methyl-1H-pyrazol-4-yl)amino)pyrimidin-2-yl)amino)-2,5-dimethyl-2,3-dihydrobenzofuran-4-yl)piperidin-1-yl)ethanol]"
23.7,> 180,–,–,–,"Cc1cc(Nc2ncc(Cl)c(Nc3cn(C4CC4)nc3S(=O)(=O)CC(C)C)n2)c2c(c1C1CCN(C)CC1)C[C@@H](C)O2 [REX-D41, (R)-5-chloro-N^4-(1-cyclopropyl-3-(isobutylsulfonyl)-1H-pyrazol-4-yl)-N^2-(2,5-dimethyl-4-(1-methylpiperidin-4-yl)-2,3-dihydrobenzofuran-7-yl)pyrimidine-2,4-diamine]"
94.8,> 180,–,–,–,"Cc1cc(Nc2ncc(Cl)c(Nc3cn(C4CC4)nc3S(=O)(=O)CC(C)C)n2)c2c(c1C1CCNCC1)C[C@@H](C)O2 [REX-D40, (R)-5-chloro-N^4-(1-cyclopropyl-3-(isobutylsulfonyl)-1H-pyrazol-4-yl)-N^2-(2,5-dimethyl-4-(piperidin-4-yl)-2,3-dihydrobenzofuran-7-yl)pyrimidine-2,4-diamine]"
58.7,> 180,–,–,–,"Cc1cc(Nc2ncc(Cl)c(Nc3cn(C)nc3S(=O)(=O)CC(C)C)n2)c2c(c1C1CCNCC1)C[C@@H](C)O2 [REX-D37, (R)-5-chloro-N^2-(2,5-dimethyl-4-(piperidin-4-yl)-2,3-dihydrobenzofuran-7-yl)-N^4-(3-(isobutylsulfonyl)-1-methyl-1H-pyrazol-4-yl)pyrimidine-2,4-diamine]"
94.3,> 180,1.02,18.8,33.7,"Cc1cc(Nc2ncc(Cl)c(Nc3cn(C)nc3S(=O)(=O)C(C)C)n2)c2c(c1C1CCN(C3CCNCC3)CC1)C[C@@H](C)O2 [REX-D13, (R)—N^2-(4-([1,4′-bipiperidin]-4-yl)-2,5-dimethyl-2,3-dihydrobenzofuran-7-yl)-5-chloro-N^4-(3-(isopropylsulfonyl)-1-methyl-1H-pyrazol-4-yl)pyrimidine-2,4-diamine]"
< 10,> 180,–,–,–,"Cc1cc(Nc2ncc(Cl)c(Nc3cn(C)nc3S(=O)(=O)CC(C)C)n2)c2c(c1C1CCN(C)CC1)C[C@@H](C)O2 [REX-D38, (R)-5-chloro-N^2-(2,5-dimethyl-4-(1-methylpiperidin-4-yl)-2,3-dihydrobenzofuran-7-yl)-N^4-(3-(isobutylsulfonyl)-1-methyl-1H-pyrazol-4-yl)pyrimidine-2,4-diamine]"

# Further lines, the compound ahead of its results:
SMILES,GI50 [1] [nM],GI50 [2] [nM],IC50 [3] [nM],IC50 [4] [nM],IC50 [5] [nM]
"Cc1cc(Nc2ncc(Cl)c(Nc3cn(C)nc3S(=O)(=O)C(C)C)n2)c2c(c1C1CCNCC1)CCC(C)O2 (stereo not drawn) [REX-D22, 5-chloro-N^2-(2,6-dimethyl-5-(piperidin-4-yl)chroman-8-yl)-N^4-(3-(isopropylsulfonyl)-1-methyl-1H-pyrazol-4-yl)pyrimidine-2,4-diamine]",32.6,> 180,–,–,–
"CC(C)S(=O)(=O)c1nn(C)cc1Nc1nc(Nc2cc(F)c(C3CCNCC3)c3c2O[C@H](C)C3)ncc1Cl [REX-D21, (R)-5-chloro-N^2-(5-fluoro-2-methyl-4-(piperidin-4-yl)-2,3-dihydrobenzofuran-7-yl)-N^4-(3-(isopropylsulfonyl)-1-methyl-1H-pyrazol-4-yl)pyrimidine-2,4-diamine]",17.8,> 180,–,–,–
"Cc1cc(Nc2ncc(C(F)(F)F)c(Nc3cn(C)nc3S(=O)(=O)C(C)C)n2)c2c(c1C1CCN(CCO)CC1)C[C@@H](C)O2 [REX-D5, (R)-2-(4-(7-((4-((3-(isopropylsulfonyl)-1-methyl-1H-pyrazol-4-yl)amino)-5-(trifluoromethyl)pyrimidin-2-yl)amino)-2,5-dimethyl-2,3-dihydrobenzofuran-4-yl)piperidin-1-yl)ethanol]",80.1,> 180,< 0.5,15,10.7
"CC(=O)N1CCC(c2c(C)cc(Nc3ncc(Cl)c(Nc4cn(C)nc4S(=O)(=O)C(C)C)n3)c3c2C[C@@H](C)O3)CC1 [REX-D12, (R)-1-(4-(7-((5-chloro-4-((3-(isopropylsulfonyl)-1-methyl-1H-pyrazol-4-yl)amino)pyrimidin-2-yl)amino)-2,5-dimethyl-2,3-dihydrobenzofuran-4-yl)piperidin-1-yl)ethanone]",11.6,> 180,1.07,9.21,10.7
"CC(C)S(=O)(=O)c1nn(C)cc1Nc1nc(Nc2cc(F)c(C3CCN(C)CC3)c3c2O[C@H](C)C3)ncc1C(F)(F)F [REX-D8, (R)—N^2-(5-fluoro-2-methyl-4-(1-methylpiperidin-4-yl)-2,3-dihydrobenzofuran-7-yl)-N^4-(3-(isopropylsulfonyl)-1-methyl-1H-pyrazol-4-yl)-5-(trifluoromethyl)pyrimidine-2,4-diamine]",11.4,> 180,–,–,–
"Cc1cc(Nc2nc(Nc3cn(C)nc3S(=O)(=O)C(C)C)c3sccc3n2)c2c(c1C1CCN(C)CC1)C[C@@H](C)O2 [REX-D30, (R)—N^2-(2,5-dimethyl-4-(1-methylpiperidin-4-yl)-2,3-dihydrobenzofuran-7-yl)-N^4-(3-(isopropylsulfonyl)-1-methyl-1H-pyrazol-4-yl)thieno[3,2-d]pyrimidine-2,4-diamine]",> 500,> 180,–,–,–
"CC(C)S(=O)(=O)c1nn(C)cc1Nc1nc(Nc2cc(F)c(C3CCN(C)CC3)c3c2O[C@H](C)C3)ncc1Cl [REX-D24, (R)-5-chloro-N^2-(5-fluoro-2-methyl-4-(1-methylpiperidin-4-yl)-2,3-dihydrobenzofuran-7-yl)-N^4-(3-(isopropylsulfonyl)-1-methyl-1H-pyrazol-4-yl)pyrimidine-2,4-diamine]",< 10,> 180,–,–,–
"Cc1cc(Nc2nc(Nc3cn(C)nc3S(=O)(=O)C(C)C)c3sccc3n2)c2c(c1C1CCNCC1)C[C@@H](C)O2 [REX-D29, (R)—N^2-(2,5-dimethyl-4-(piperidin-4-yl)-2,3-dihydrobenzofuran-7-yl)-N^4-(3-(isopropylsulfonyl)-1-methyl-1H-pyrazol-4-yl)thieno[3,2-d]pyrimidine-2,4-diamine]",> 500,> 180,–,–,–
